These results are taken from US9701716B2, “Water buffalo derived dimeric peptide containing proline for antibiotic therapies” (Centaur, Inc., priority 2014, dated 2017).

Read-outs that look alike come from different tables or passages of the source. No end group written: not given here.

A word on the MIC: it is the lowest concentration that inhibits growth of the organism. A higher MIC goes with a need for much substance.

The test system of experiment [1] is Staphylococcus aureus. The experiment is classed as cell-based. Here is the method:
Additional antimicrobial agents were evaluated for antimicrobial activity, including 23 computationally-derived analogues of SEQ ID NO: 3. These analogues were grouped into two functional series, including those synthesized for improved helicity (Table 2; A-P) and those synthesized for enhanced activity (Table 2; IND, Q-T, and W-X). The antimicrobial activity of the synthetic analogues provided in Table 2 were evaluated using standard techniques such as those described in Sang, et al. 2007 Dev. Comp. Immunol., and herein incorporated by reference. […] The additional antimicrobial agent analogs optimized for helical stability in Example 2 (Table 3) were evaluated for antimicrobial activity. The antimicrobial activity of the synthetic analogues provided in Table 3 were evaluated using standard techniques such as those described in Sang, et al. 2007 Dev. Comp. Immunol., and herein incorporated by reference.

The test system of the next experiment is Klebsiella pneumoniae. The experiment is classed as cell-based. How it is done:
(§1) The antimicrobial agents disclosed are derivatives of SEQ. ID. NO.: 3, having 14 amino acids and a broad spectrum of antimicrobial activity. The antimicrobial agents of the disclosure were synthesized and analyzed to evaluate antimicrobial activity. Initially, the antimicrobial agent of SEQ ID NO.: 3 was evaluated for inhibition of clinical isolates of common mastitis pathogens (Table 1).
(§2) The additional antimicrobial agent analogs optimized for helical stability in Example 2 (Table 3) were evaluated for antimicrobial activity. The antimicrobial activity of the synthetic analogues provided in Table 3 were evaluated using standard techniques such as those described in Sang, et al. 2007 Dev. Comp. Immunol., and herein incorporated by reference.
(§3) The antimicrobial activity of SEQ ID NO. 8 was further evaluated against clinical isolates of mastitis-causing bacteria (Table 5).

Experiment [2] has as its system Staphylococcus aureus. The experiment is classed as cell-based. Here is the method: as §1, §2, §3
The source holds these as a separate data set.

The subject of experiment [3] is Streptococcus dysgalactiae. The experiment is classed as cell-based. Here is the method: as §1, §2, §3
The next experiment deals with Corynebacterium species. Description: MIC against clinical isolates of mastitis pathogens. The experiment is classed as cell-based. As to conditions: clinical isolate 404-C18, Corynebacterium species, multidrug resistance ++. Here is the method: as §1, §2, §3
Another experiment relates to Escherichia coli. The experiment is classed as cell-based. How it is done:
as §2, §3

Experiment [4] has as its system Staphylococcus aureus. Put plainly: Mastitis mouse model, CFU in mammary glands. The experiment is classed as in vivo, Balb/c mice. As to conditions: 32 μg per gland intra-mammarily, every 24 hrs for 3 days from 24 hours post-infection; Kruskal-Wallis with Dunn's post-test, 5% level of significance. Here is the method:
The antimicrobial agent of SEQ ID NO: 8 was evaluated using an in vivo model of bacterial infection to assess the antimicrobial activity of the agent. The following methods and materials were used.
Staphylococcus aureus was isolated from milk from dairy cows with clinical mastitis (Livestock Disease Diagnostic Center, University of Kentucky. Lexington, Ky.). Upon arrival, bacteria were striped on blood agar plates (TSA+5% sheep blood from Remel, Kansas City. Mo.) and cultured at 37° C. for 24 hrs. A fresh single bacterial colony picked from the agar plate was inoculated into 10 ml of Muller Hinton II broth (MHB) and cultured at 37° C. for 4-6 hrs. until reaching an absorbance of 0.8 with a 625 nm spectrophotometer filter. At this absorbance, the MHB has been documented to contain 1×10^5 colony forming units (CFU) in a 50 μl volume.
For the experiment, 56 female Balb/c mice (BW˜[…]) at 7-10 days of lactation were used. Four groups of n=14 mice were used for each experiment as described below. For intramammary inoculation the protocol described by Chandler was followed (J. Med. Microbiol. V3; 273-282: 1970) with minor modifications. […]
All mice were euthanized (using CO2) following the AVMA euthanasia guidelines 24 hours after the last treatment. […] Dilutions (10^−1, 10^−2, and 10^−3) of the homogenates were plated quantitatively to determine the number of CFU per gland. […]

Setting [5] is: Staphylococcus aureus, first duplicate.
Where [6] appears, read: Staphylococcus aureus, second duplicate.

Regarding “GLARILLRLLFFRG [WB14-F1, GLARILLRLLFFRG]”, the MIC duplicates against Staphylococcus aureus [1] was 8.0,8.0 μg/ml.

Regarding “GLARILLRLLFRFG (Antimicrobial peptide sequence) [WB14-N1, antimicrobial agent optimized for helical stability]”, the MIC duplicates in the experiment on Staphylococcus aureus [1] (setting [5]) and with Staphylococcus aureus [1] (setting [6]) was 128,128 μg/ml in each case.

For the substance GLARILLRWLFRFG [WB14-N, GLARILLRWLFRFG], the MIC duplicates with Staphylococcus aureus [1] is on record as 4.0,4.0 μg/ml.

Take GLPWILLRWLFFRG [WB14-A, GLPWILLRWLFFRG]: the figures for the MIC (in the experiment on Klebsiella pneumoniae; against Staphylococcus aureus [2]; in experiment [3]) were 25.0 µM, 25.0 µM and 12.5 µM, respectively.

In the case of “GLTRILLRLLLRFG (Antimicrobial peptide sequence) [WB14-O4, antimicrobial agent optimized for helical stability]”, the MIC duplicates with Staphylococcus aureus [1] (setting [5]) and against Staphylococcus aureus [1] (setting [6]) was 256,256 μg/ml each time.

Consider “GLVRILLRLLFRFG (Antimicrobial peptide sequence) [WB14-O1, antimicrobial agent optimized for helical stability]”, for which the MIC duplicates with Staphylococcus aureus [1] (setting [5]) was 64 µg/mL; in the experiment on Staphylococcus aureus [1] (setting [6]), 128 µg/mL.

Turning to “GLVRILLRLLLRFG (Antimicrobial peptide sequence) [WB14-O2, antimicrobial agent optimized for helical stability]”, the MIC duplicates was 256 µg/mL against Staphylococcus aureus [1] (setting [5]) and 128 µg/mL with Staphylococcus aureus [1] (setting [6]).

Take “GLVRILLRLLLRFS [WB14-O6, GLVRILLRLLLRFS]”: the MIC duplicates in the experiment with Staphylococcus aureus [1] is >256, >256 μg/ml.

On to “GLVRILLRLLLRYG (Antimicrobial peptide sequence) [WB14-O5, antimicrobial agent optimized for helical stability]”, for which the MIC duplicates in the experiment with Staphylococcus aureus [1] (setting [5]) was 64 µg/mL; against Staphylococcus aureus [1] (setting [6]) it was 128 µg/mL.

Regarding “H-GLARILLRWLFFRG-OH [WB14-F, GLARILLRWLFFRG]”, the MIC in the experiment with Corynebacterium species is 16.0 µg/mL; against Klebsiella pneumoniae, 16.0 µg/mL; in experiment [3], 8.0 µg/mL; in the experiment with Escherichia coli, 4.0 µg/mL. Besides, in the experiment with Staphylococcus aureus [1] (Staphylococcus aureus MIC comparison), the “antimicrobial activity compared with other peptides (in words)” value is recorded as “most efficacious antimicrobial synthetic peptide”. Also, the “colony forming units (CFU) per mammary gland versus control groups” value in the experiment with Staphylococcus aureus [4] is reported as “a difference between the WB-14F versus the three control groups”.

On to “SLVRILLRLLLRFG (Antimicrobial peptide sequence) [WB14-O3, antimicrobial agent optimized for helical stability]”, for which the MIC duplicates in the experiment with Staphylococcus aureus [1] (setting [5]) and with Staphylococcus aureus [1] (setting [6]) was 128,128 μg/ml in each case.
